The text below walks through data of patent publication US6436999B1, “Diacyl-substituted guanidines, a process for their preparation, their use as medicine or diagnostic aid, and medicine containing them” (Hoechst Aktiengesellschaft, priority 1993, dated 2002).

Structures can show the parent of a compound that is named as a salt.

Data set [1] addresses T1, Na^+/H^+ exchanger of rabbit erythrocytes (Oryctolagus cuniculus, UniProt P23791).
T1 construct: endogenous in cells; host or cells: erythrocytes in whole blood from cholesterol-fed New Zealand White rabbits
Kind of data set: Inhibition of the Na+/H+ exchanger of rabbit erythrocytes (amiloride-sensitive sodium influx, flame photometry). The settings on record: hyperosmolar salt/sucrose medium, pH 7.4, 37° C., Na^+ influx by flame photometry. The class given is cell-based. The text has this:
New Zealand White rabbits (Ivanovas) were given a standard diet containing 2% cholesterol for six weeks in order to activate Na^+/H^+ exchange and thus to be able to use flame photometry to determine the Na^+ influx into the erythrocytes via Na^+/H^+ exchange. The blood was removed from the aural arteries and rendered incoagulable by the addition of 25 IU of potassium heparin per ml. One part of each sample was used for the duplicate determination of the hematocrit by centrifugation. Aliquots of in each case 100 μl were employed for measuring the initial content of Na^+ in the erythrocytes.
In order to determine the amiloride-sensitive sodium influx, 100 μl of each blood sample were in each case incubated, at pH 7.4 and 37° C., in 5 ml of a hyperosmolar salt/sucrose medium (mmol/l: 140 NaCl, 3 KCl, 150 sucrose, 0.1 ouabain, 20 tris(hydroxymethyl)aminomethane). The erythrocytes were then washed three times with ice cold MgCl2/ouabain solution (mmol/l: 112 MgCl2, 0.1 ouabain) and hemolyzed in 2.0 ml of distilled water. The intracellular content of sodium was determined by flame photometry.
The nett influx of Na^+ was calculated from the difference between the initial sodium values and the sodium content of the erythrocytes following incubation. The amiloride-inhibitable sodium influx was given by the difference in the sodium content of the erythrocytes following incubation with and without 3×10^−4 mol/l amiloride. The same procedure was also used in the case of the compounds according invention.

T1 sequence (P23791 whole entry): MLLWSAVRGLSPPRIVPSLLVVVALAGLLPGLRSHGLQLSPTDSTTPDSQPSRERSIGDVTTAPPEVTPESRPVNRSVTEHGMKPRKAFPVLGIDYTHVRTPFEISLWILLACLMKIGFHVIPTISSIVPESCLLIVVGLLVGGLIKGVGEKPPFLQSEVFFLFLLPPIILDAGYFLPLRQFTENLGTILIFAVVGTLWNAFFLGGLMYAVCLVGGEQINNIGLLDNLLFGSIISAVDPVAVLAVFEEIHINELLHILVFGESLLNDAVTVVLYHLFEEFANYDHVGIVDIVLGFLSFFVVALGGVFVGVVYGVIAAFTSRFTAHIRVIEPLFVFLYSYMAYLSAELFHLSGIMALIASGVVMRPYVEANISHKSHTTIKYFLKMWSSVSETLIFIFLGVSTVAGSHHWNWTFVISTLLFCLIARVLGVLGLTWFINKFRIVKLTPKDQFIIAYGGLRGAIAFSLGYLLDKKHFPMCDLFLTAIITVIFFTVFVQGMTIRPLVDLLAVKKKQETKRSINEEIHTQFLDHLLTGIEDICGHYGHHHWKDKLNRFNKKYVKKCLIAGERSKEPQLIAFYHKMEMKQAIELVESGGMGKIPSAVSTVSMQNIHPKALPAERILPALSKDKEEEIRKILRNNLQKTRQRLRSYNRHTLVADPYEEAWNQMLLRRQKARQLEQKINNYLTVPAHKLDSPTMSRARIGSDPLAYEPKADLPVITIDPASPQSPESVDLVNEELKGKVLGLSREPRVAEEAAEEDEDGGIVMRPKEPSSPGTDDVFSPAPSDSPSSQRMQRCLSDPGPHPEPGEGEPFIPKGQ

Broadly, the melting point is the temperature, or range, at which the solid turns liquid. As for `N=C(NC(=O)CCc1ccccc1C(F)(F)F)NC(=O)CCc1ccccc1C(F)(F)F` (as salt: hydrochloride) [Example 7, N,N′-Bis[3-(2-trifluoromethylphenyl)propionyl]guanidide], the melting point stood at 75 °C.

As usually defined, the IC50 is the concentration that gives 50% inhibition. With `CC(C)c1ccc(C(=O)NC(=N)NC(=O)c2ccc(C(C)C)c(S(C)(=O)=O)c2)cc1S(C)(=O)=O` [Example 1, Bis(3-methylsulfonyl-4-i-propylbenzoyl)guanidine], the melting point lay in the range of 218 to 221 °C. Besides, the IC50 in data set [1] was 10 µM.

`N=C(NC(=O)c1ccc(F)c(C(F)(F)F)c1)NC(=O)c1ccc(F)c(C(F)(F)F)c1` [Example 2, Bis(4-fluoro-3-trifluoromethylbenzoyl)guanidine] had a melting point of 143 to 145 °C. Besides, the IC50 in data set [1] came to 10 µM.

`N=C(NC(=O)c1ccc(-n2ccnc2)c(C(F)(F)F)c1)NC(=O)c1ccc(-n2ccnc2)c(C(F)(F)F)c1` [Example 3, Bis[4-(l-imidazolyl)-3-trifluoromethylbenzoyl]guanidine]: the half-inhibitory concentration (IC50) in data set [1] was determined as 5 µM.

On to `Cl.N=C(NC(=O)c1ccc(F)c(C(F)(F)F)c1)NC(=O)c1ccc(-n2ccnc2)c(C(F)(F)F)c1` [Example 4, N-[4-(1-Imidazolyl)-3-trifluoromethylbenzoyl]-N′-(4-fluoro-3-trifluoromethylbenzoyl)guanidine Hydrochloride], for which the melting point is 217 to 218 °C (dec.). Further, the IC50 in data set [1] was determined as 3 µM.

The compound `N=C(NC(=O)C1CCc2ccccc2C1)NC(=O)C1CCc2ccccc2C1` (stereo not shown) [Example 5, N,N′-Bis(1,2,3,4-tetrahydronaphthalene-2-carbonyl)guanidide] registered a melting point of 99 °C. Further, the IC50 in data set [1] was 0.3 µM.

Take `C/C(=C\c1ccccc1)C(=O)NC(=N)NC(=O)/C(C)=C/c1ccccc1` [Example 6, N,N′-Bis[(E)-2-methylcinnamoyl]guanidide]: the IC50 in data set [1] stood at 1.1 µM.

Take `N=C(NC(=O)CCc1ccccc1C(F)(F)F)NC(=O)CCc1ccccc1C(F)(F)F` [Example 7, N,N′-Bis[3-(2-trifluoromethylphenyl)propionyl]guanidide]: the IC50 in data set [1] is 2 µM.

Consider `CC(Cc1cc(F)ccc1F)C(=O)NC(=N)NC(=O)C(C)Cc1cc(F)ccc1F` (stereo not shown) [Example 8, N,N′-Bis[3-(2,5-difluorophenyl)-2-methylpropionyl]guanidide], for which, in data set [1], the IC50 was 0.3 µM.
